We go through one compound from patent US20020035097A1, “Method of preventing and treating chemotherapy-induced alopecia” (priority 1991, published 2002).

One assay deals with VP-16-induced alopecia. Nature of the assay: VP-16 (Etoposide)-induced alopecia in young rats. Type of assay: in vivo, rat. As for the experimental part: Twelve 7 day old rats were randomized in two groups. Group I was treated daily with buffer 0.1 ml s.c. for four days. The second Group was treated daily with Vitamin D3 50 μg s.c. over head for four days. After stopping the buffer or Vitamin D3 treatment, all rats received 1.5 mg/kg i.p. of VP-16 (Etoposide) daily for three days.
(§1) 1,25-Dihydroxyvitamin D3 was dissolved in absolute ethanol and applied topically with an applicator. Control animals were similarly treated with the same amount of ethanol. Animals were then kept individually separated for a period of three hours following which the treated area was carefully washed with soap and water and dried. Treatment was given daily beginning on day 5 after birth and ending on day 10.
All chemotherapies were given I.P. and started at 11 days of age. CTX, 35 mg/kg, was given for one day only. VP-16, 1.5 mg/kg, was given for three days. For CTX and ADM combination, CTX, 25 mg/kg was given for one day and ADM, 2.5 mg/kg, for three days. At these doses neither CTX nor ADM alone will produce alopecia. Alopecia was recorded on the tenth day from beginning chemotherapy.
(§2) A total of 4 experiments were carried out. In the first experiment, protection from Cytoxan-induced alopecia was examined. The experimental group was pretreated with 0.2 μg of 1,25-dihydroxyvitamin D3 in 0.15 ml of absolute ethanol applied topically over the head and neck and the control group received 0.15 ml of alcohol. All 10 rats in the control group became totally alopecic. […] The second experiment was carried out under similar conditions to examine protection from VP-16-induced alopecia. All 10 rats in the control group developed total body alopecia. […] The third experiment was designed to examine protection from alopecia induced by Cytoxan-Adriamycin combination. There were 11 rats in each group. Six rats in the control group developed alopecia over the head and neck and 5 rats developed total body alopecia. […] In the fourth experiment, protection from VP-16-induced alopecia was similarly examined except that the dose of 1,25-dihydroxyvitamin D3 was reduced to 0.1 μg in 0.1 ml absolute ethanol applied topically over the head area only. All 10 rats in the control group became completely alopecic.
RO 23-7553 (1,25 dihydroxy-16-ene-23-yne-cholecalciferol) was dissolved in absolute ethanol and applied topically with an applicator. Control animals were similarly treated with the same amount of ethanol. Animals were then kept individually separated for a period of three hours following which the treated area was carefully washed with soap and water and dried. Treatment was given daily beginning on day 9 after birth and ending on day 14.
On day 15 all animals received VP-16, 1.5 mg/kg i.p., for three days. Alopecia was recorded on day 25.
Thirteen rats were randomized in two groups. Experimental group, 7 rats; control group, 6 rats. The experimental group was pretreated with 1 μg of RO 23-7553 in 0.2 ml absolute ethanol applied topically over the neck and back and the control group received 0.2 ml of absolute ethanol. All six rats in the control group became totally alopecic over the neck and back.

The subject of assay [1] is hair growth. The experiment in a line: Stimulation of hair regrowth on shaven backs of rats. Type of assay: in vivo, rat. The conditions noted are these: noted in rats during the chemotherapy-induced alopecia studies.
The subject of assay [2] is hair growth. Described as above. In kind it is in vivo, rat. As for the experimental part: The backs of nineteen 25 day old Sprague Dawley rats were shaven and randomized in two groups.
Group I (control 10 rats) received 0.1 ml of ethanol applied topically once daily to the shaven area for 14 days.
Group II (Calcitriol 9 rats) received 50 ng of 1,25-dihydroxyvitamin D3 in 0.1 ml of ethanol applied topically once daily to the shaven area for 14 days.
On day 15 stimulation of hair regrowth was assessed by reshaving an area 6 cm×6 cm in diameter. The hair was collected and weighed. The difference between two groups was highly statistically significant. P. value 0.003 (see Table III and FIG. 11).

A further assay relates to Cytoxan-induced alopecia. The experiment in a line: Cytoxan-induced alopecia in young rats. Type of assay: in vivo, rat. The conditions noted are these: 0.2 μg in 0.15 ml absolute ethanol topically over head and neck, pretreatment; CTX 35 mg/kg one day.
For assay [3], the system named is EGF receptors on breast cancer cells. The conditions noted are these: literature; cited from earlier work.
For assay [4], the system named is EGF receptors on a cell line established from rat calvaria. To be noted: literature; cited from earlier work.
For assay [5], the system named is Cytoxan/Adriamycin-induced alopecia. Nature of the assay: Cytoxan/Adriamycin combination-induced alopecia in young rats. In kind it is in vivo, rat. The conditions noted are these: 0.2 μg in 0.15 ml absolute ethanol topically over head and neck, pretreatment; 11 rats per group. On the procedure: Eight 4-day old Sprague Dawley rats were randomized in two groups of 4 rats each. Group I, received EGF […] s.c. on the head daily for 7 days. Group II received buffer injections and served as controls. One day after stopping EGF or buffer injections all rats received Cytoxan 25 mg/kg i.p.×1 day and Adriamycin 2.5 mg/kg i.p.×3 days. […] (FIG. 5).
as §1
All chemotherapies were given I.P. and started at 11 days of age. CTX, 35 mg/kg, was given for one day only. VP-16, 1.5 mg/kg, was given for three days. For CTX and ADM combination, CTX, 25 mg/kg was given for one day and ADM, 2.5 mg/kg, for three days. […] Alopecia was recorded on the tenth day from beginning chemotherapy.
as §2, with “alcohol.” for “alcohol. All 10 rats in the control group became totally alopecic.”, “VP-16-induced” for “VP-16-induced alopecia. All 10 rats in the control group developed total body”, “group.” for “group. Six rats in the control group developed alopecia over the head and neck and 5 rats developed total body alopecia.”, “only.” for “only. All 10 rats in the control group became completely alopecic.”

Several values for one entry are separate records, joined by “and”; a condition that tells them apart may be missing. Identical values can stand only once. Entries after “also recorded” stand apart in the source; their conditions may differ.

On to `C=C1/C(=C\C=C2/CCC[C@]3(C)[C@@H]([C@H](C)CCCC(C)(C)O)CC[C@@H]23)C[C@@H](O)C[C@@H]1O` [1,25-dihydroxyvitamin D3], for which the “Protection from VP-16-induced alopecia” value with VP-16-induced alopecia (0.1 μg in 0.1 ml absolute ethanol topically over the head area only, pretreatment, VP-16 1.5 mg/kg for three days) is “protected primarily at the site of 1,25-dihydroxyvitamin D3 application; also recorded: less generalized and was more limited to the site of application”; with VP-16-induced alopecia (0.2 μg in 0.15 ml absolute ethanol topically over head and neck, pretreatment, VP-16 1.5 mg/kg for three days) it was “all rats in the experimental group were protected”; with VP-16-induced alopecia (applied topically 0.5 μg daily in 50% ethanol or DMSO), “protected”. In addition, the Extent of protection result in the assay with VP-16-induced alopecia (0.2 μg topically over head and neck, stated for the CTX, VP-16 and CTX+ADM experiments together) is “not limited to the site of application but involved the entire body”. For the same compound, the “Coat and hair in the treated area” value in the assay on hair growth [1] was “better coat of hair and longer hair in the treated area”. In addition, the “Hair Weight, Mean S.E.M.” value in the assay on hair growth [2] (50 ng in 0.1 ml ethanol topically once daily for 14 days, 9 rats, day 15, P value 0.003 vs control) is 164 ± 13 Mg. In addition, in the assay with hair growth [2] (50 ng in 0.1 ml ethanol topically once daily to shaven area for 14 days, 6 cm×6 cm area reshaved on day 15, listed as Calcitriol), the “Hair Weight (individual rats)” value was 130 Mg and 177 Mg and 140 Mg and 147 Mg and 135 Mg and 202 Mg and 143 Mg and 150 Mg and 253 Mg. Besides, the “Effect on hair growth” value in the assay with hair growth [2] (administered topically in the rat) is reported as “stimulation of hair growth”. For the same compound, the “Protection from Cytoxan-induced alopecia” value in the assay on Cytoxan-induced alopecia was “all animals in the experimental group were protected”. Moreover, the “Effect on EGF receptors” value in assay [3] and in assay [4] was “increase EGF receptors” throughout. In addition, in assay [5], the “Protection from alopecia induced by Cytoxan-Adriamycin combination” value is “all rats in the experimental group were protected”.
